Data on five molecules can be found in paper doi:10.1101/2023.03.24.534094v2 (biorxiv, 2023).

Like-named read-outs stand apart in the source and are kept apart here.

Among the targets are NDR2 (Homo sapiens, UniProt Q9Y2H1); ABL1 (Homo sapiens, UniProt P00519); EpHA5 (Homo sapiens, UniProt P54756); RSK1b (Homo sapiens, UniProt Q15418); FES (Homo sapiens, UniProt P07332); AAK1 (Homo sapiens, UniProt Q2M2I8); AKT3 (Homo sapiens, UniProt Q9Y243); BRAF (Homo sapiens, UniProt P15056).
Holding throughout (assay): biochemical
A further assay addresses T1, CaMK4 (Homo sapiens, UniProt Q16566).
T1 sequence (Q16566 1-473): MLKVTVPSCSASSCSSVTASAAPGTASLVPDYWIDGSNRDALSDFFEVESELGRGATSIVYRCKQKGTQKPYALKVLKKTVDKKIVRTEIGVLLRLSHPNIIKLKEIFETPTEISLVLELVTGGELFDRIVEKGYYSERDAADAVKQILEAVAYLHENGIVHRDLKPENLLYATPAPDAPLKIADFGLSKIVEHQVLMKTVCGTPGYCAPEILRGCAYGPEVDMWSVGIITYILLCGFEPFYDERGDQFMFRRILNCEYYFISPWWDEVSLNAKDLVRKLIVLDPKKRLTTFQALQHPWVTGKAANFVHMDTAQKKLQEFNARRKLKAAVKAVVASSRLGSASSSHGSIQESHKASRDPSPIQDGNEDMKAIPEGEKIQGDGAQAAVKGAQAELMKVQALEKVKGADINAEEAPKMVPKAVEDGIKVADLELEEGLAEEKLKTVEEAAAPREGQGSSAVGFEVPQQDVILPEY

Another assay deals with T2, MAP2K4 (Homo sapiens, UniProt P45985).
T2 sequence (P45985 1-399): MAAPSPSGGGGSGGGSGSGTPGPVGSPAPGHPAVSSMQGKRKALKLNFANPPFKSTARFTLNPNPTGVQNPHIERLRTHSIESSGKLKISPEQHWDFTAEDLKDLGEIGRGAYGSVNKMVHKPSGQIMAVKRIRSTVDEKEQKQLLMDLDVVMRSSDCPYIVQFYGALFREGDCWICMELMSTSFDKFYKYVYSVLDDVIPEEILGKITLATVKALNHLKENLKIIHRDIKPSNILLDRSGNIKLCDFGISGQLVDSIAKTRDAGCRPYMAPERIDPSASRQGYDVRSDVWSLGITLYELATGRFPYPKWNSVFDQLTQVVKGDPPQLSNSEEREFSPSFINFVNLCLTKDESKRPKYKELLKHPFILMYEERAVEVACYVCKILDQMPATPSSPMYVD

For a further assay, the target named is T3, EphB1 (Homo sapiens, UniProt P54762).
T3 sequence (P54762 1-984): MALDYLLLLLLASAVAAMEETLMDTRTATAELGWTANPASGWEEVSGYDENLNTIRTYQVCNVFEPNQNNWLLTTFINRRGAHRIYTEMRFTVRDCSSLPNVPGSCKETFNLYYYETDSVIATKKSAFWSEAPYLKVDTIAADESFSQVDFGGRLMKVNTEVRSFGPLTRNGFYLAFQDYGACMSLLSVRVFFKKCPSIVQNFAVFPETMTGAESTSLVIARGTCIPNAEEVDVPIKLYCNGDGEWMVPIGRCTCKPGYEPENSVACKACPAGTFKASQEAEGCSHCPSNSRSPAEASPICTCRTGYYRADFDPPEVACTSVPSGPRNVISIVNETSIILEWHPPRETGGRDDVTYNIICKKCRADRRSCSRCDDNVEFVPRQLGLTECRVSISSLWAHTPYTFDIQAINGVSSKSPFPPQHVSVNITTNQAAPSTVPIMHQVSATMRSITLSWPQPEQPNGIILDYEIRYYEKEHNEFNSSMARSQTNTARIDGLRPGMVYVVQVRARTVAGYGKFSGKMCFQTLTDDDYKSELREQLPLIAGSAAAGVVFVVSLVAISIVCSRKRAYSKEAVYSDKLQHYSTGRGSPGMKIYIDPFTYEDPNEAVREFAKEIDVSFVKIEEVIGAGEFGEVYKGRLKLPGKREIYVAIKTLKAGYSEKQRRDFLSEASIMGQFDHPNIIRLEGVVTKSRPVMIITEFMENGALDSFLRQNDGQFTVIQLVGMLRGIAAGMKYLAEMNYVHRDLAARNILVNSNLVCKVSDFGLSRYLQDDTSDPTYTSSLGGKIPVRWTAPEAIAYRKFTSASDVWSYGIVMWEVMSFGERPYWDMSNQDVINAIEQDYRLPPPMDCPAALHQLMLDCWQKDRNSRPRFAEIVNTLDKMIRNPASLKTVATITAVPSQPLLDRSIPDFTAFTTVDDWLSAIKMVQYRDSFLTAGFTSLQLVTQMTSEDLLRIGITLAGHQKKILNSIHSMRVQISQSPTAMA

Sequence of NDR2 (Q9Y2H1 whole entry): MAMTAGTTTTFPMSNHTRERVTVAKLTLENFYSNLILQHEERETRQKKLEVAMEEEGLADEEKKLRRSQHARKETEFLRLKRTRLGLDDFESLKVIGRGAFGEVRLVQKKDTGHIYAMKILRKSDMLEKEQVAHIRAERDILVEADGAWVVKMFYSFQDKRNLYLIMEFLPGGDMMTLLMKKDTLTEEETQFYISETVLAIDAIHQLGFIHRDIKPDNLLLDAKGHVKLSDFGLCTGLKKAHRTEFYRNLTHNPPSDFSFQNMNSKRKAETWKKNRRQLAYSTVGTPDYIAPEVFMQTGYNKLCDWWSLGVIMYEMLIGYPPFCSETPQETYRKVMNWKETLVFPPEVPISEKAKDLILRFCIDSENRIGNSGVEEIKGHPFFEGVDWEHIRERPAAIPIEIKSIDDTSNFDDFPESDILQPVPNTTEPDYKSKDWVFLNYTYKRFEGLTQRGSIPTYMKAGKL
Sequence of AAK1 (Q2M2I8 whole entry): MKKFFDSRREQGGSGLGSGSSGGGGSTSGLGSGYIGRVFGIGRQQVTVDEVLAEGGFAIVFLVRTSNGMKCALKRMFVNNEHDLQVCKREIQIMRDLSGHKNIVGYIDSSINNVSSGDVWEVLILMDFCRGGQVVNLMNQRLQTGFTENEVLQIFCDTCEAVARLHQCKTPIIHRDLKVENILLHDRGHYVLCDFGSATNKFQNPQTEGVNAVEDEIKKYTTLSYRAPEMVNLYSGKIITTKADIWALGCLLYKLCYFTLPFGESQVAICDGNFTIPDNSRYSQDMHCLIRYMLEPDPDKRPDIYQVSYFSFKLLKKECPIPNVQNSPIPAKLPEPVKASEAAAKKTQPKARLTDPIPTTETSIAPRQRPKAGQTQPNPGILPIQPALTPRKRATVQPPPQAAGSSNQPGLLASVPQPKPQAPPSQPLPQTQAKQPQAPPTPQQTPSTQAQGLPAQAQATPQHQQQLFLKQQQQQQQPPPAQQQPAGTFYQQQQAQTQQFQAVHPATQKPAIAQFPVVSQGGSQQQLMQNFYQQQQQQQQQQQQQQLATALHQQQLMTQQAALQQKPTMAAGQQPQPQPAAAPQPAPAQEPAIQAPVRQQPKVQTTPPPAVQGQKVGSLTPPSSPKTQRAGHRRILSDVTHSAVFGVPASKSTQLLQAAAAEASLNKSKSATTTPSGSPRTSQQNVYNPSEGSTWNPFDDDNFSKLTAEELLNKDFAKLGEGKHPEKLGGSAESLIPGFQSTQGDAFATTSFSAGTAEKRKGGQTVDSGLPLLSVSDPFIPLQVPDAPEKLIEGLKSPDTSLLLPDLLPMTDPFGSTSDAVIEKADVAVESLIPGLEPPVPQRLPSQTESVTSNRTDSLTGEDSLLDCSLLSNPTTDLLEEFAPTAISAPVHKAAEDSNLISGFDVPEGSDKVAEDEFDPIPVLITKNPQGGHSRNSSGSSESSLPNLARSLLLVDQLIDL
Sequence of ABL1 (P00519 whole entry): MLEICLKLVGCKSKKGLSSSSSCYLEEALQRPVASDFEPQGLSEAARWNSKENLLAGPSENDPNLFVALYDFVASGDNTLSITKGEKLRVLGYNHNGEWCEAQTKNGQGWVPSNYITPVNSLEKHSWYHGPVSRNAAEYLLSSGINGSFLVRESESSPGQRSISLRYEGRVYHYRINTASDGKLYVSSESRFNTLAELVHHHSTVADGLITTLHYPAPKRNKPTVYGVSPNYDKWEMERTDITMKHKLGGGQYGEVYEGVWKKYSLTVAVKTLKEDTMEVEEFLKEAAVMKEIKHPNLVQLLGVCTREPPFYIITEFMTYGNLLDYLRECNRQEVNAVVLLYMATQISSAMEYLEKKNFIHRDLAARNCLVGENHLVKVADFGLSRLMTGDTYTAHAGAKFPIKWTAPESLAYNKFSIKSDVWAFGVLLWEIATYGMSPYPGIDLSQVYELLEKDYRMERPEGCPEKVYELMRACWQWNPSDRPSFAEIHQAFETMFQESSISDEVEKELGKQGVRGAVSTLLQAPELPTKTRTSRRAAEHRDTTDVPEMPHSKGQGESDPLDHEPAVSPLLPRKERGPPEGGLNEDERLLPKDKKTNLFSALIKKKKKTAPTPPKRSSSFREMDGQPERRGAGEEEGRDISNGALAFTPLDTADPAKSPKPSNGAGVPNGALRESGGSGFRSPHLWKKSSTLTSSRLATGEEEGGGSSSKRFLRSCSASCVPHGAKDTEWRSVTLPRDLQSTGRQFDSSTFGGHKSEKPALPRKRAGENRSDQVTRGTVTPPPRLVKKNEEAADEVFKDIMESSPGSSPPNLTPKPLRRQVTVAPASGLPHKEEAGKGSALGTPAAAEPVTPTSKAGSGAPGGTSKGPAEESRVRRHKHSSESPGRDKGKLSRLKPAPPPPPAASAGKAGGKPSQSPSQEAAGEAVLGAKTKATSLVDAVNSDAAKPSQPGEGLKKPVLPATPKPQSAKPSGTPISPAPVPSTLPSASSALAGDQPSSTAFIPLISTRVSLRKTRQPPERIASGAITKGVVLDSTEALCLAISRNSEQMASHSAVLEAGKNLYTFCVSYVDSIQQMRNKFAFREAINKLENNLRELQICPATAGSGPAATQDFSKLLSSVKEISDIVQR
Sequence of EpHA5 (P54756 whole entry): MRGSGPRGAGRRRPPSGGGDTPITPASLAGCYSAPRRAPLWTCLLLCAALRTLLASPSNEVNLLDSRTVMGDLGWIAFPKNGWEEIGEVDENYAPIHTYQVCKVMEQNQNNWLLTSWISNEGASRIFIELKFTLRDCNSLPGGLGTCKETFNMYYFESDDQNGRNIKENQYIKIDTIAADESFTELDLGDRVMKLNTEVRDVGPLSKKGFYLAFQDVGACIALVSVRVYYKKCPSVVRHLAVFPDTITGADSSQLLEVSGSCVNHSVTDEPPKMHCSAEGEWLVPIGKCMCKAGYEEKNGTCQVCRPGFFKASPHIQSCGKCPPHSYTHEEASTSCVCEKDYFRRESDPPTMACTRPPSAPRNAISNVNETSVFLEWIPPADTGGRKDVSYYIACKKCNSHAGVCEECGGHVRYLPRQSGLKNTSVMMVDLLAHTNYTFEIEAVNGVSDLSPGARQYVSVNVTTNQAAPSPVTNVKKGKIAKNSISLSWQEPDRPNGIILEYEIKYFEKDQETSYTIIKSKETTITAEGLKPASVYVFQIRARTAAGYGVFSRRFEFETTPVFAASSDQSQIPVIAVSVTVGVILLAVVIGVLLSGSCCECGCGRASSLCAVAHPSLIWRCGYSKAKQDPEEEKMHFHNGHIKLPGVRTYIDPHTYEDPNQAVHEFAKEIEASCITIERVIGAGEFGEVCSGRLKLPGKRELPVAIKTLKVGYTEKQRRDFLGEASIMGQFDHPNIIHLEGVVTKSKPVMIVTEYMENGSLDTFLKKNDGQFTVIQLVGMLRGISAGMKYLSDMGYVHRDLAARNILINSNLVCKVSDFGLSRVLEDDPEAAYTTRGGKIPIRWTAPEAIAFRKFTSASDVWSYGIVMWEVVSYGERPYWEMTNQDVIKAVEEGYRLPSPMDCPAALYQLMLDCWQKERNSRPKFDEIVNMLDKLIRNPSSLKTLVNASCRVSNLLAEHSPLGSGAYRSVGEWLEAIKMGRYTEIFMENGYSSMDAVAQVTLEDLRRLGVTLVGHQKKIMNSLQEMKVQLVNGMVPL
Sequence of AKT3 (Q9Y243 whole entry): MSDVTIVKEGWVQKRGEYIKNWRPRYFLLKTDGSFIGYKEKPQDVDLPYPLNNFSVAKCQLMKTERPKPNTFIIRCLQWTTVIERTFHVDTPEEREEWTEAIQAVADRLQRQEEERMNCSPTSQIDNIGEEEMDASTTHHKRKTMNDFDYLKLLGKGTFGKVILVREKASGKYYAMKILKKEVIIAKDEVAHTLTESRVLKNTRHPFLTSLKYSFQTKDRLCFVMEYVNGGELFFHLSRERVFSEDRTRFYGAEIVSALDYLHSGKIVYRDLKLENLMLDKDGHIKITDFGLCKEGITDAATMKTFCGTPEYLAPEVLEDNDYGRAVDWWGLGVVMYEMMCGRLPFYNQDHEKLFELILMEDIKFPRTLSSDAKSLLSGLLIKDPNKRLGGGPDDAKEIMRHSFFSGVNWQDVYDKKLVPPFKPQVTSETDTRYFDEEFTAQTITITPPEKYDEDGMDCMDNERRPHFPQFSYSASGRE
Sequence of BRAF (P15056 whole entry): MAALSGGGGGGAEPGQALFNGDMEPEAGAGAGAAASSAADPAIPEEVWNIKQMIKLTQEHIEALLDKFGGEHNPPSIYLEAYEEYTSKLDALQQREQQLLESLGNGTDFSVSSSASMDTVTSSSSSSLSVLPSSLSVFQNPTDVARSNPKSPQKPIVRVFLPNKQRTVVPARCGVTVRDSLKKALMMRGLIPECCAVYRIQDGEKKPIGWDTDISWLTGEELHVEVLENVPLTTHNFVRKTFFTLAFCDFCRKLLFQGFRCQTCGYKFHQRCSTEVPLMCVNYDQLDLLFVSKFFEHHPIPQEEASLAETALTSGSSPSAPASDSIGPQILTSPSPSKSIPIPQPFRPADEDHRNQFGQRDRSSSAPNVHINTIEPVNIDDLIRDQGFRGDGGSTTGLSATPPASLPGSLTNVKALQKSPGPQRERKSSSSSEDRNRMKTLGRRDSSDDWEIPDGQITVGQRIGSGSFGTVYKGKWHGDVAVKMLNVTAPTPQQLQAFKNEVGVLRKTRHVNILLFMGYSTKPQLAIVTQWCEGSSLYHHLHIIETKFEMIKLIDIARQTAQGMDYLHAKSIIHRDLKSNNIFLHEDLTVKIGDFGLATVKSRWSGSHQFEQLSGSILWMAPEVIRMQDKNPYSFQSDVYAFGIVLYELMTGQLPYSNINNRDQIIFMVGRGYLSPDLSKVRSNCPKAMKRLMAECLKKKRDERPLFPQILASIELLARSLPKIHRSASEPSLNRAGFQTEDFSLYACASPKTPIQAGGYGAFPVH

Turning to `CNc1ncc2cc(-c3ccc(-c4cccc(C)n4)cc3Cl)c(=O)n(CC3OCC(N)CO3)c2n1` (stereo not drawn) [compound 2, G-5555], the “dTm G-5555 (2)” value at NDR2 (10 µM, binder) came to 3.5 °C; on ABL1 (10 µM, binder) it was 5.1 °C; on EpHA5 (10 µM, binder) it was 2.7 °C; at RSK1b (10 µM, binder) it was 0.0 °C; on CaMK4 (10 µM, binder), 0.7 °C; on FES (10 µM, binder), 4.1 °C. For the same molecule, the “dTm G-5555 (2)” value on AAK1 (10 µM, binder) came to 0.6 °C; on MAP2K4 (10 µM, binder) it was 6.4 °C; on AKT3 (10 µM, binder), 1.4 °C; at BRAF (10 µM, binder) it was 3.9 °C.

In the case of `CNc1ncc2cc(-c3cc(Br)ccc3Cl)c(=O)n(C[C@H]3OC[C@H](N)CO3)c2n1` [compound 7, 8-(((2r,5r)-5-Amino-1,3-dioxan-2-yl)methyl)-6-(5-bromo-2-chlorophenyl)-2-(methylamino)pyrido[2,3-d]pyrimidin-7(8H)-one], the ΔTm at 10 µM was -0.1 °C on NDR2 (read-out: dTm 7); 4.1 °C on ABL1 (read-out: dTm 7); 3.2 °C at EpHA5 (read-out: dTm 7); 5.1 °C on RSK1b (read-out: dTm 7); 0.1 °C at CaMK4 (read-out: dTm 7); 3.1 °C on EphB1 (read-out: dTm 7). Moreover, the ΔTm at 10 µM at FES (read-out: dTm 7) is 1.1 °C; at AAK1 (read-out: dTm 7), 0.5 °C; on MAP2K4 (read-out: dTm 7), 2.1 °C; on AKT3 (read-out: dTm 7), 0 °C; on BRAF (read-out: dTm 7), 8.3 °C.

Turning to `CNc1ncc2cc(-c3cc(Br)ccc3Cl)c(=O)n(CCCCN)c2n1` [compound 6, 8-(4-Aminobutyl)-6-(5-bromo-2-chlorophenyl)-2-(methylamino)pyrido[2,3-d]pyrimidin-7(8H)-one], the ΔTm at 10 µM on NDR2 (read-out: dTm 6) is 0.7 °C; on ABL1 (read-out: dTm 6), 4.5 °C; at EpHA5 (read-out: dTm 6) it was 4.5 °C; on RSK1b (read-out: dTm 6) it was 6.3 °C; on CaMK4 (read-out: dTm 6), -0.1 °C; on EphB1 (read-out: dTm 6) it was 4.7 °C. In addition, the ΔTm at 10 µM on FES (read-out: dTm 6) amounted to 2.5 °C; on AAK1 (read-out: dTm 6) it was 0.7 °C; at MAP2K4 (read-out: dTm 6) it was 2.5 °C; on AKT3 (read-out: dTm 6), 0.2 °C; at BRAF (read-out: dTm 6) it was 10.8 °C.

For `CNc1ncc2cc(-c3ccccc3Cl)c(=O)n(CCCCN)c2n1` [compound 4, 8-(4-Aminobutyl)-6-(2-chlorophenyl)-2-(methylamino)pyrido[2,3-d]pyrimidin-7(8H)-one], the ΔTm at 10 µM came to 0.5 °C on NDR2 (read-out: dTm MR21 (4)); 9.2 °C on ABL1 (read-out: dTm MR21 (4)); 5.8 °C on RSK1b (read-out: dTm MR21 (4)); 0.8 °C at CaMK4 (read-out: dTm MR21 (4)); 3.6 °C on EphB1 (read-out: dTm MR21 (4)); 3 °C on FES (read-out: dTm MR21 (4)). Besides, the ΔTm at 10 µM on AAK1 (read-out: dTm MR21 (4)) was determined as 1.6 °C; at MAP2K4 (read-out: dTm MR21 (4)) it was 3.3 °C; at AKT3 (read-out: dTm MR21 (4)), 0.7 °C; on BRAF (read-out: dTm MR21 (4)), 12.2 °C.

As to `CNc1ncc2cc(-c3cc(F)ccc3F)c(=O)n(CCCCN)c2n1` [compound 5, 8-(4-Aminobutyl)-6-(2,5-difluorophenyl)-2-(methylamino)pyrido[2,3-d]pyrimidin-7(8H)-one], the ΔTm at 10 µM on NDR2 (read-out: dTm MR22 (5)) is 1.6 °C; at ABL1 (read-out: dTm MR22 (5)), 6.9 °C; at RSK1b (read-out: dTm MR22 (5)) it was 5.4 °C; at CaMK4 (read-out: dTm MR22 (5)), -0.6 °C; on EphB1 (read-out: dTm MR22 (5)), 4.5 °C; at AAK1 (read-out: dTm MR22 (5)), 0.4 °C. Also, the ΔTm at 10 µM on MAP2K4 (read-out: dTm MR22 (5)) came to 1.5 °C; at AKT3 (read-out: dTm MR22 (5)) it was 0.5 °C; on BRAF (read-out: dTm MR22 (5)), 9.2 °C.
